From US6472348B1, “Pyridone derivatives and herbicides” (Kumiai Chemical Industry Co., Ltd., priority 1996, dated 2002)

Assays:
Type in all cases: in vivo
barnyardgrass (Ec) [1] = experiment: Test Example 1: herbicidal effects by paddy field soil treatment; conditions: 100 g of the active ingredient per 10 ares, 21st day after the application, index 0-5 of Table 47;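 further: grade of growth control; 5 = at least 90%; 4 = 70 to 90%; 3 = 50 to 70%; 2 = 30 to 50%; 1 = 10 to 30%; 0 = under 10%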
Method in brief: (§1)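 Flooded paddy-soil pots (3 cm water) sown after puddling/leveling; treatment 100 g a.i./10 ares; greenhouse culture; herbicidal effect rated visually on a scoring scale at 21 d post-application.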

bulrush (Sc) = experiment: as above; conditions: 100 g of the active ingredient per 10 ares, 21st day after the application, index 0-5 of Table 47;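 further: grade of growth control; 5 = at least 90%; 4 = 70 to 90%; 3 = 50 to 70%; 2 = 30 to 50%; 1 = 10 to 30%; 0 = under 10%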
Method in brief: as §1

monochoria (Mo) = experiment: as above; conditions: 100 g of the active ingredient per 10 ares, 21st day after the application, index 0-5 of Table 47;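 further: grade of growth control; 5 = at least 90%; 4 = 70 to 90%; 3 = 50 to 70%; 2 = 30 to 50%; 1 = 10 to 30%; 0 = under 10%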
Method in brief: as §1

Digitaria ciliaris (Di) = experiment: Test Example 2: herbicidal effects by upland field soil treatment; conditions: 100 g of the active ingredient per 10 ares;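 further: grade of growth control; 5 = at least 90%; 4 = 70 to 90%; 3 = 50 to 70%; 2 = 30 to 50%; 1 = 10 to 30%; 0 = under 10%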
Source text: (§2) (Test on Herbicidal Effects by Upland Field Soil Treatment)

barnyardgrass (Ec) [2] = experiment: as above; conditions: 100 g of the active ingredient per 10 ares
Source text: as §2

[3] = test system: common lambsquarters (Ch); experiment: as above; conditions: 100 g of the active ingredient per 10 ares
Source text: as §2

pale smartweed (Po) [4] = experiment: as above; conditions: 100 g of the active ingredient per 10 ares
Source text: as §2

rice flatsedge (Ci) [5] = experiment: as above; conditions: 100 g of the active ingredient per 10 ares
Source text: as §2

slender amaranth (Am) [6] = experiment: as above; conditions: 100 g of the active ingredient per 10 ares
Source text: as §2

Diaitaria ciliaris (Di) = experiment: Test Example 3: herbicidal effects by upland field foliage treatment; parameters: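 grade of growth control; 5 = at least 90%; 4 = 70 to 90%; 3 = 50 to 70%; 2 = 30 to 50%; 1 = 10 to 30%; 0 = under 10%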
Method in brief: (§3)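 Seeds → sand pot (120 cm^2) → soil cover → greenhouse 2 wk → foliar treatment → greenhouse → herbicidal score at 14 d post-treatment against graded standards.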

barnyardgrass (Ec) [7] = experiment: as above; parameters: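 grade of growth control; 5 = at least 90%; 4 = 70 to 90%; 3 = 50 to 70%; 2 = 30 to 50%; 1 = 10 to 30%; 0 = under 10%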
Method in brief: as §3

[8] = test system: common lambsquarters (Ch); experiment: as above; parameters: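 grade of growth control; 5 = at least 90%; 4 = 70 to 90%; 3 = 50 to 70%; 2 = 30 to 50%; 1 = 10 to 30%; 0 = under 10%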
Method in brief: as §3

pale smartweed (Po) [9] = experiment: as above; parameters: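 grade of growth control; 5 = at least 90%; 4 = 70 to 90%; 3 = 50 to 70%; 2 = 30 to 50%; 1 = 10 to 30%; 0 = under 10%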
Method in brief: as §3

rice flatsedge (Ci) [10] = experiment: as above; parameters: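 grade of growth control; 5 = at least 90%; 4 = 70 to 90%; 3 = 50 to 70%; 2 = 30 to 50%; 1 = 10 to 30%; 0 = under 10%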
Method in brief: as §3

slender amaranth (Am) [11] = experiment: as above; parameters: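 grade of growth control; 5 = at least 90%; 4 = 70 to 90%; 3 = 50 to 70%; 2 = 30 to 50%; 1 = 10 to 30%; 0 = under 10%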
Method in brief: as §3

[12] = 21st day after the application, index 0-5 of Table 47
[13] = 100 g of the active ingredient per 10 ares, evaluated on the 14th day after treatment
[14] = evaluated on the 21st day after application
[15] = 100 g active ingredient per 10 ares, evaluated 14th day after treatment

Cn1c(C(F)(F)F)ccc(-c2cc(OCC(=O)O)c(Cl)cc2F)c1=O [1-105]
5: Herbicidal effects Ec (barnyardgrass (Ec) [1]) | Herbicidal effects Sc (bulrush (Sc)) | Herbicidal effects Mo (monochoria (Mo)) | Herbicidal effects Di (Digitaria ciliaris (Di); [12]) | Herbicidal effects Ec (barnyardgrass (Ec) [2]; [12]) | Herbicidal effects Ch [3, 12] | Herbicidal effects Po (pale smartweed (Po) [4]; [12]) | Herbicidal effects Ci (rice flatsedge (Ci) [5]; [12]) | Herbicidal effects Am (slender amaranth (Am) [6]; [12]) | Herbicidal effects Di (Diaitaria ciliaris (Di); [13]) | Herbicidal effects Ec (barnyardgrass (Ec) [7]; [13]) | Herbicidal effects Ch [8, 13] | Herbicidal effects Po (pale smartweed (Po) [9]; [13]) | Herbicidal effects Ci (rice flatsedge (Ci) [10]; [13]) | Herbicidal effects Am (slender amaranth (Am) [11]; [13])

CCOC(=O)C(C)Nc1cc(-c2ccc(C(F)(F)F)n(C)c2=O)c(F)cc1Cl (stereo not drawn) [1-64]
5: Herbicidal effects Ec (barnyardgrass (Ec) [1]) | Herbicidal effects Sc (bulrush (Sc)) | Herbicidal effects Mo (monochoria (Mo)) | Herbicidal effects Di (Digitaria ciliaris (Di); [12]) | Herbicidal effects Ec (barnyardgrass (Ec) [2]; [12]) | Herbicidal effects Ch [3, 12] | Herbicidal effects Po (pale smartweed (Po) [4]; [12]) | Herbicidal effects Ci (rice flatsedge (Ci) [5]; [12]) | Herbicidal effects Am (slender amaranth (Am) [6]; [12]) | Herbicidal effects Di (Diaitaria ciliaris (Di); [13]) | Herbicidal effects Ec (barnyardgrass (Ec) [7]; [13]) | Herbicidal effects Ch [8, 13] | Herbicidal effects Po (pale smartweed (Po) [9]; [13]) | Herbicidal effects Ci (rice flatsedge (Ci) [10]; [13]) | Herbicidal effects Am (slender amaranth (Am) [11]; [13])

Cn1c(C(F)(F)F)ccc(-c2cc(C(=O)[O-])c(Cl)cc2F)c1=O.[Na+] [1-144]
5: Herbicidal effects Ec (barnyardgrass (Ec) [1]) | Herbicidal effects Sc (bulrush (Sc)) | Herbicidal effects Mo (monochoria (Mo)) | Herbicidal effects Di (Digitaria ciliaris (Di); [12]) | Herbicidal effects Ec (barnyardgrass (Ec) [2]; [12]) | Herbicidal effects Ch [3, 12] | Herbicidal effects Po (pale smartweed (Po) [4]; [12]) | Herbicidal effects Ci (rice flatsedge (Ci) [5]; [12]) | Herbicidal effects Am (slender amaranth (Am) [6]; [12]) | Herbicidal effects Di (Diaitaria ciliaris (Di); [13]) | Herbicidal effects Ec (barnyardgrass (Ec) [7]; [13]) | Herbicidal effects Ch [8, 13] | Herbicidal effects Po (pale smartweed (Po) [9]; [13]) | Herbicidal effects Ci (rice flatsedge (Ci) [10]; [13]) | Herbicidal effects Am (slender amaranth (Am) [11]; [13])

Cn1c(C(F)(F)F)ccc(-c2cc(CO)c(Cl)cc2F)c1=O [1-135]
5: Herbicidal effects Ec (barnyardgrass (Ec) [1]) | Herbicidal effects Sc (bulrush (Sc)) | Herbicidal effects Mo (monochoria (Mo)) | Herbicidal effects Di (Digitaria ciliaris (Di); [12]) | Herbicidal effects Ec (barnyardgrass (Ec) [2]; [12]) | Herbicidal effects Ch [3, 12] | Herbicidal effects Po (pale smartweed (Po) [4]; [12]) | Herbicidal effects Ci (rice flatsedge (Ci) [5]; [12]) | Herbicidal effects Am (slender amaranth (Am) [6]; [12]) | Herbicidal effects Di (Diaitaria ciliaris (Di); [13]) | Herbicidal effects Ec (barnyardgrass (Ec) [7]; [13]) | Herbicidal effects Ch [8, 13] | Herbicidal effects Po (pale smartweed (Po) [9]; [13]) | Herbicidal effects Ci (rice flatsedge (Ci) [10]; [13]) | Herbicidal effects Am (slender amaranth (Am) [11]; [13])

CC(C)C(O)c1cc(-c2ccc(C(F)(F)F)n(C)c2=O)c(F)cc1Cl (stereo not drawn) [Compound 1-195]
5: Herbicidal effects Ec (barnyardgrass (Ec) [1]) | Herbicidal effects Sc (bulrush (Sc)) | Herbicidal effects Mo (monochoria (Mo)) | Herbicidal effects Di (Digitaria ciliaris (Di); [14]) | Herbicidal effects Ec (barnyardgrass (Ec) [2]; [14]) | Herbicidal effects Ch [3, 14] | Herbicidal effects Po (pale smartweed (Po) [4]; [14]) | Herbicidal effects Ci (rice flatsedge (Ci) [5]; [14]) | Herbicidal effects Am (slender amaranth (Am) [6]; [14]) | Herbicidal effects Di (Diaitaria ciliaris (Di); [15]) | Herbicidal effects Ec (barnyardgrass (Ec) [7]; [15]) | Herbicidal effects Ch [8, 15] | Herbicidal effects Po (pale smartweed (Po) [9]; [15]) | Herbicidal effects Ci (rice flatsedge (Ci) [10]; [15]) | Herbicidal effects Am (slender amaranth (Am) [11]; [15])

C=CCOc1cc(-c2cc(C)c(C(F)(F)F)n(C)c2=O)c(F)cc1Cl [1-77]
5: Herbicidal effects Ec (barnyardgrass (Ec) [1]) | Herbicidal effects Sc (bulrush (Sc)) | Herbicidal effects Mo (monochoria (Mo)) | Herbicidal effects Di (Digitaria ciliaris (Di); [12]) | Herbicidal effects Ec (barnyardgrass (Ec) [2]; [12]) | Herbicidal effects Ch [3, 12] | Herbicidal effects Po (pale smartweed (Po) [4]; [12]) | Herbicidal effects Ci (rice flatsedge (Ci) [5]; [12]) | Herbicidal effects Am (slender amaranth (Am) [6]; [12]) | Herbicidal effects Di (Diaitaria ciliaris (Di); [13]) | Herbicidal effects Ec (barnyardgrass (Ec) [7]; [13]) | Herbicidal effects Ch [8, 13] | Herbicidal effects Po (pale smartweed (Po) [9]; [13]) | Herbicidal effects Ci (rice flatsedge (Ci) [10]; [13]) | Herbicidal effects Am (slender amaranth (Am) [11]; [13])

CCCCOC(=O)COc1cc(-c2ccc(C(F)(F)F)n(C)c2=O)c(F)cc1Cl [1-148]
5: Herbicidal effects Ec (barnyardgrass (Ec) [1]) | Herbicidal effects Sc (bulrush (Sc)) | Herbicidal effects Mo (monochoria (Mo)) | Herbicidal effects Di (Digitaria ciliaris (Di); [12]) | Herbicidal effects Ec (barnyardgrass (Ec) [2]; [12]) | Herbicidal effects Ch [3, 12] | Herbicidal effects Po (pale smartweed (Po) [4]; [12]) | Herbicidal effects Ci (rice flatsedge (Ci) [5]; [12]) | Herbicidal effects Am (slender amaranth (Am) [6]; [12]) | Herbicidal effects Di (Diaitaria ciliaris (Di); [13]) | Herbicidal effects Ec (barnyardgrass (Ec) [7]; [13]) | Herbicidal effects Ch [8, 13] | Herbicidal effects Po (pale smartweed (Po) [9]; [13]) | Herbicidal effects Ci (rice flatsedge (Ci) [10]; [13]) | Herbicidal effects Am (slender amaranth (Am) [11]; [13])

Cc1cc2c(-c3ccc(C(F)(F)F)n(C)c3=O)c(Cl)cc(Cl)c2o1 [Compound 4-10]
5: Herbicidal effects Ec (barnyardgrass (Ec) [1]) | Herbicidal effects Sc (bulrush (Sc)) | Herbicidal effects Mo (monochoria (Mo)) | Herbicidal effects Di (Digitaria ciliaris (Di); [14]) | Herbicidal effects Ec (barnyardgrass (Ec) [2]; [14]) | Herbicidal effects Ch [3, 14] | Herbicidal effects Po (pale smartweed (Po) [4]; [14]) | Herbicidal effects Ci (rice flatsedge (Ci) [5]; [14]) | Herbicidal effects Am (slender amaranth (Am) [6]; [14]) | Herbicidal effects Di (Diaitaria ciliaris (Di); [15]) | Herbicidal effects Ec (barnyardgrass (Ec) [7]; [15]) | Herbicidal effects Ch [8, 15] | Herbicidal effects Po (pale smartweed (Po) [9]; [15]) | Herbicidal effects Ci (rice flatsedge (Ci) [10]; [15]) | Herbicidal effects Am (slender amaranth (Am) [11]; [15])

CCOCOc1cc(-c2ccc(C(F)(F)F)n(C)c2=O)c(Cl)cc1Cl [Compound 1-206]
5: Herbicidal effects Ec (barnyardgrass (Ec) [1]) | Herbicidal effects Sc (bulrush (Sc)) | Herbicidal effects Mo (monochoria (Mo)) | Herbicidal effects Di (Digitaria ciliaris (Di); [14]) | Herbicidal effects Ec (barnyardgrass (Ec) [2]; [14]) | Herbicidal effects Ch [3, 14] | Herbicidal effects Po (pale smartweed (Po) [4]; [14]) | Herbicidal effects Ci (rice flatsedge (Ci) [5]; [14]) | Herbicidal effects Am (slender amaranth (Am) [6]; [14]) | Herbicidal effects Di (Diaitaria ciliaris (Di); [15]) | Herbicidal effects Ec (barnyardgrass (Ec) [7]; [15]) | Herbicidal effects Ch [8, 15] | Herbicidal effects Po (pale smartweed (Po) [9]; [15]) | Herbicidal effects Ci (rice flatsedge (Ci) [10]; [15]) | Herbicidal effects Am (slender amaranth (Am) [11]; [15])

CCCC(Oc1cc(-c2ccc(C(F)(F)F)n(C)c2=O)c(F)cc1Cl)C(=O)OCC (racemic) [1-121]
5: Herbicidal effects Ec (barnyardgrass (Ec) [1]) | Herbicidal effects Sc (bulrush (Sc)) | Herbicidal effects Mo (monochoria (Mo)) | Herbicidal effects Di (Digitaria ciliaris (Di); [12]) | Herbicidal effects Ec (barnyardgrass (Ec) [2]; [12]) | Herbicidal effects Ch [3, 12] | Herbicidal effects Po (pale smartweed (Po) [4]; [12]) | Herbicidal effects Ci (rice flatsedge (Ci) [5]; [12]) | Herbicidal effects Am (slender amaranth (Am) [6]; [12]) | Herbicidal effects Di (Diaitaria ciliaris (Di); [13]) | Herbicidal effects Ec (barnyardgrass (Ec) [7]; [13]) | Herbicidal effects Ch [8, 13] | Herbicidal effects Po (pale smartweed (Po) [9]; [13]) | Herbicidal effects Ci (rice flatsedge (Ci) [10]; [13]) | Herbicidal effects Am (slender amaranth (Am) [11]; [13])
